The values that follow come from patent publication US20220411525A1, “BCMA AS A TARGET FOR T CELL REDIRECTING ANTIBODIES IN B CELL LYMPHOMAS” (Janssen Pharmaceutica NV, priority 2021, published 2022).

Assay [1] concerns B cell malignancy cell lines. Description: Viability of cell lines under γ-secretase inhibition. Conditions: 100nM γ-secretase inhibitor, 24-48 h. It counts as cell-based. As for the experimental part:
Since BCMA is known to be cleaved off by γ-secretase, it was evaluated whether inhibition of this enzyme would lead to enhanced BCMA levels on these B cell lines. To assess this, the different B cell malignancy lines were incubated for 24-48 h with 100nM γ-secretase inhibitor (Ly411575) and BCMA fold increase was compared to unstimulated cells. Viability of the different cell lines was not affected by γ-secretase inhibition (FIG. 7A). […] Besides the cell lines which already had high basal levels of BCMA (U266, RPMI-8226, MWCL1 and BCWM.1) also cell lines which had low basal expression of BCMA, such as JeKo-1 and OCI-Ly7 were able to upregulate BCMA after γ-secretase inhibition (FIG. 1B). […] This was studied by determination of soluble BCMA (sBCMA) levels in supernatants of B cell malignancy cell lines, which were cultured for 24 or 48h in the absence or presence of γ-secretase inhibitor. Indeed, sBCMA levels were detectable upon culture of different selected cell lines (except for Jurkat), and increased upon longer culture times (FIG. 1C).

The test system of assay [2] is B cell malignancy cell lines. Description: BCMA mRNA relative to GAPDH by qPCR in cell lines. Format: cell-based. The conditions noted are these: 100 nM, 24 h, prior and after γ-secretase inhibition. As for the experimental part:
To evaluate whether other malignancies besides multiple myeloma (MM) can potentially be targeted by BCMA directed immunotherapy, B cell malignancy cell lines were assessed for BCMA expression by flow cytometry. […] Per FIG. 1A, B cell malignancy cell lines were cultured and basal levels of BCMA were assessed by flow cytometry and compared to isotype controls. (n=3-8). Dotted line indicates no increase compared to isotype control. In accordance with FIG. 1B, cell lines were treated for 24-48h with 100nM γ-secretase inhibitor or with medium control and BCMA was assessed by flow cytometry. Values are represented as fold increase compared to 0 nM γ-secretase inhibitor. (n=3-12) Dotted line indicates no increase compared to 0 nM γ-secretase inhibitor. […] The P value was calculated by paired t test of Wilcoxon test (FIG. 1A-1B) or simple linear regression (FIG. 1E). […]
Since BCMA is known to be cleaved off by γ-secretase, it was evaluated whether inhibition of this enzyme would lead to enhanced BCMA levels on these B cell lines. […]
BCMA characterization by flow cytometry and quantitative polymerase chain reaction. […] After 24 or 48 h BCMA was detected by flow cytometry as described above. Relative expression was calculated compared to isotype controls. […]

In assay [3] the test system is primary CLL cells. The experiment in a line: Viability of CLL cells under γ-secretase inhibition. The conditions noted are these: 100 nM γ-secretase inhibitor. It counts as cell-based, human. As for the experimental part:
Viability of CLL cells was not affected by the inhibitor (FIG. 8A). No difference in BCMA levels, before or after γ-secretase inhibitor treatment, was observed between CLL samples with mutated and unmutated immunoglobulin heavy chain variable region gene (IgHV) status (FIG. 2C-D). Low but measurable mRNA levels of BCMA expression could be detected on CLL cells (FIG. 2E). Despite low BCMA detection by flow cytometry, sBCMA could be detected in supernatants of CLL cells, already after 24 h of culturing, which increased after 48 h (FIG. 2F).

Assay [4] has as its system primary CLL cells. The experiment in a line: Soluble BCMA ELISA in supernatants of CLL cells. Format: cell-based, human. The conditions noted are these: 100 nM, 24-48 h. As for the experimental part: Primary CLL samples were stained for BCMA expression by flow cytometry and compared to isotype controls. […] As provided in FIG. 2A, CLL cells were cultured and basal levels of BCMA were assessed by flow cytometry and compared to isotype controls. (n=25). For FIG. 2B, CLL cells were treated for 24 or 48h with 0nM or 100 nM γ-secretase inhibitor and BCMA was assessed by flow cytometry. Values are represented as fold increase compared to medium control. (n=12-28). FIG. 2C provides basal levels of BCMA compared to isotype control among CLL patients with mutated or unmutated IgVH. (n=4-10). FIG. 2D illustrates the fold increase of BCMA after 24-48 h treatment with 100nM γ-secretase inhibitor compared to medium control among CLL patients with mutated or unmutated IgVH. (n=5-13). FIG. 2E provides the results of an assessment of BCMA mRNA relative to GAPDH control by qPCR after primary CLL samples were treated without or with 100 nM γ-secretase inhibitor for 24 h. (n=9). […] (n=4-12) The P value was calculated by Wilcoxon test (FIGS. 2A-2B), Mann Whitney test (FIGS. 2B, 2C, 2D) or paired t test (FIGS. 2E, F). […]
sBCMA ELISA. […] After 24 or 48 h supernatants were harvested and stored at −20° C. soluble BCMA (sBCMA) in supernatants were measured by ELISA using antibody pairs for BCMA.

For `C[C@H](NC(=O)[C@@H](O)c1cc(F)cc(F)c1)C(=O)N[C@@H]1C(=O)N(C)c2ccccc2-c2ccccc21` [Ly411575], in assay [1], the “Viability of the different cell lines” value was “not affected”. Moreover, in assay [2], the “BCMA mRNA levels” value was “remained equal”. In addition, the “Viability of CLL cells” value in assay [3] is reported as “not affected”. Moreover, in assay [4], the “sBCMA levels in supernatants of CLL cells” value is “marked decreases”.
